How the values were obtained:
[1] = Suppression of elevation of blood sugar level in mice given starch or sucrose orally; type: in vivo, ICR-strain male mice; details: test drug 10 mg/kg oral (dose of the x1 + x2 mixture not stated), 30 minutes after administration, ICR male mice, six per group
Protocol: The test was carried out by the following procedure: Test animal was ICR-strain male mice (six mice per group, weighing 25 g in average) which had been abstained from water for 20 hours. 1 g/kg of starch or 2.5 g/kg of sucrose was orally given to the mice. At the same time, 10 mg/kg of the compound of this invention or 10 mg/kg of deoxynojirimycin as a comparative drug was orally administered to these mice. 30 minutes after the administration, the glucose level in blood was measured.

[2] = target: α-glucosidase; assay: Determination of the activity of inhibiting α-glucosidase; type: biochemical, pig; details: measured in the same way as above; read-out: ID50 values (comparison substances, measured in the same way as above)
Text: The compound of this invention is useful for highly inhibiting the enzymatic reaction of glucosidase and particularly for inhibiting the enzymatic reaction of α-glucosidase as well as the enzymatic reaction of saccharase. Such the inhibitory activity of the compound of this invention may be estimated according to the following procedure with the α-glucosidase prepared from ileum mucosa of pig as disclosed in the literature "Acta Chem. Scand." vol. 12, page 1997 (1958).
(1) Determination of the activity of inhibiting α-glucosidase. There are prepared the following four solutions:
Solution A: A solution of the enzyme (α-glucosidase) having appropriately been diluted to a desired enzyme concentration with 0.1 M maleate buffered solution (pH 6.0)
Solution B: 0.1 M maleate buffered solution (pH 6.0)
Solution C: An aqueous solution of 0.014 M p-nitrophenyl-α-D-glycoside (as the substrate) in water
Solution D: An aqueous solution of 0.1 M sodium carbonate in water […]
In the above assay, degree (%) of inhibition for the inhibitor sample to the α-glucosidase is calculated according to the following equation: […]

SMILES: OC[C@H]1NC[C@H](O)[C@@H](O)[C@@H]1O [Deoxynojirimycin]
- Blood sugar level, groups receiving starch ([1]; starch 1 g/kg oral): 101 ± 22.9 mg/dL
- Blood sugar level, groups receiving sucrose ([1]; sucrose 2.5 g/kg oral): 93 ± 15.4 mg/dL

SMILES: OC[C@H]1NC(O)[C@H](O)[C@@H](O)[C@@H]1O (stereo partly drawn) [nojirimycin]
- IC50 [2]: 360 µM

— US4316894A, “Antibiotic SF-1130-x3 3 substance and production and use thereof” (Meiji Seika Kaisha, Ltd., priority 1979, dated 1982)
